Measured values: article PMC4834588 (British Journal of Clinical Pharmacology, 2016)
Read-outs that look alike come from different tables or passages of the source. Marks after values point to notes of the source that are not given here. One block for each molecule: values may come before it. Numbered stars: 1 amine (or outer) side, 2 acyl side, 3 side chain; on linkers, the order of the positions; unused ones are H or OH. Bridge positions count the residues as written; N and C are the ends. Square brackets hold non-standard residues; d marks the D form. Peptide text beside a SMILES is read from it. I, II: the chains in the order shown. Actinocin(9to1) = Cc1c2oc3c(C)ccc(C(=O)[*:1])c3nc-2c(C(=O)[*:2])c(N)c1=O; NMeV = CN[C@H](C(=O)O)C(C)C; Sar = CNCC(=O)O

Columns and labels:
[1] = Log P by HPLC retention on C18 column
Source text: The method for the generation of Log P values by high performance liquid chromatography (HPLC) was adapted from that described by Zhao et al. 22. Briefly, Log P correlates with the retention time of a compound by a solid phase C18 column. […] By using compounds with known Log P values, a standard curve can be determined and the Log P of a compound of interest obtained by interpolation. A Waters HPLC system, linked to an Agilent fluorescence detector, was used along with a Luna 5 μ C18 50 × 2.0 mm HPLC column preceded by a guard column (Phenomenex, Macclesfield, UK). […] The sample holder for the HPLC was set at 25 °C in order to prevent freezing of the DMSO during the run. The mobile phase consisted of deionized water and acetonitrile with a constant gradient of 40–60%, respectively.
Prior to each run the column was equilibrated to the running conditions for 10 minutes, with the flow rate set to 0.5 ml min^−1. A 20‐μl aliquot of each sample was injected into the column and its retention time measured relative to that of the sodium nitrate peak. Peaks were analysed using Empower software (Waters, Wilmslow, UK).

[2] = Blood:plasma partitioning in whole blood from a healthy donor; type: in vitro ADME; details: human
Description: All experiments were performed in triplicate. An aliquot of 180 μl whole blood from a healthy donor was added to 20 μL of each Act D solution (final concentrations 0.4, 2 and 10 μg ml^−1) in Eppendorf tubes, followed by gentle rotation for 1 min before transfer to an incubator (Infors HT Multitron Standard, Infors AG, Basel) at 37 °C for 1 h and 40 μl of plasma was transferred to a new Eppendorf and mixed with 40 μl of fresh blood.
For the blood samples, 40 μl of blood was transferred to a new Eppendorf and mixed with 40 μl blank plasma. All samples were then mixed with 160 μl of the extraction solution and frozen at −80 °C for 1 h. Samples were then centrifuged at 2000 g and 4 °C for 1 h and 100 μl of supernatant from each sample was transferred to HPLC vials and stored at −20 °C overnight. LC–MS analysis was performed as described above for the analysis of transporter kinetic samples. The blood‐to‐plasma ratio was calculated from the following equation (where Kb/p is the whole blood‐to‐plasma partition coefficient, Ke/p is the red blood cell‐to‐plasma partition and H is the haematocrit): (1) Blood‐to‐plasmaKb/p=Ke/p×H+1−H

[3] = set-up: method as in PMID 15143082; details: cited from earlier work
ABCB1 (MDR1) = ABCB1 (MDR1) (Homo sapiens, UniProt P08183); details: basal to apical, 0.1-100 μM Act D, 1 h, MDCKII-MDR1 minus MDCKII-WT
Description: Polarized Madin‐Darby canine kidney (MDCKII) cell line wild‐type and cells transfected with ABCB1 (MDR1) were obtained from Dr. A.H. Schinkel (Amsterdam, the Netherlands).
For drug transport experiments, 12‐mm Corning Transwell polycarbonate membrane cell culture inserts with 0.4‐μm pores were used (Sigma Aldrich, UK). Cells (passage 8–12) were seeded at 1.4 × 10^4 cells ml^−1 in growth medium and grown on filter for 5 days before the experiment was performed, with medium being changed every 24 hours. […] Growth medium was aspirated from both the apical and basal compartments, and the cells were washed twice with pre‐warmed phosphate‐buffered saline adjusted to pH 7.4. […] Lucifer yellow (60 μM) was added as a paracellular control to test for the formation of a fully confluent monolayer. A limit of 2% Lucifer yellow movement was set as the cutoff with the results for any wells exceeding that threshold being rejected.
The rate of efflux (μM min^−1/10^6 cells) due to MDR1 was determined by subtracting the rate of flux seen across the MDCKII‐WT cells from the flux across the MDCKII‐MDR1 cells.

[4] = cited from earlier work
[5] = PBPK modelling and simulation (Simcyp version 14 release 1); set-up: species or system human; details: PBPK compound file input; determined from chemical structure
Description: Modelling and simulation were performed using Simcyp version 14 release 1 (Simcyp Ltd, a Certara company, Sheffield, UK). The compound file for Act D was compiled using data generated in the methods described above and with additional inputs from web databases and literature sources as shown in Table 2. The Simcyp software provides a framework for assessing the PK of a drug by defining certain characteristics within a compound file. Using this compound file, pharmacokinetic data can then be simulated in individuals of a virtual population of interest, allowing for the impact of inter‐individual differences to be assessed 17, 18.
For the simulation of clinical trial data, information was taken from previous work by Hill et al., who studied 117 patients administered Act D intravenously 8. The population was split into three age categories: 1–<6 (n = 67), 6–<10 (n = 11) and 10–20 years (n = 39). These age bins were further subdivided based on the dose of Act D received (Table 1). […]
The Simcyp simulations output the mean and the 5th and 95th percentile for the concentration−time profile as well as the calculated mean, median and geometric mean of the simulated population. […] In addition, the mean fold‐prediction of AUC against observed data was determined; a two‐fold under‐ or over‐prediction was considered a reasonable prediction and within 1.5‐fold a good prediction. […]

[6] = cited from earlier work; remark: listed apart in the source
[7] = set-up: method as in http://www.drugbank.ca/drugs/DB00970; details: PBPK compound file input; ref http://www.drugbank.ca/drugs/DB00970; cited from earlier work

ABCB1 (MDR1), sequence (P08183 whole entry): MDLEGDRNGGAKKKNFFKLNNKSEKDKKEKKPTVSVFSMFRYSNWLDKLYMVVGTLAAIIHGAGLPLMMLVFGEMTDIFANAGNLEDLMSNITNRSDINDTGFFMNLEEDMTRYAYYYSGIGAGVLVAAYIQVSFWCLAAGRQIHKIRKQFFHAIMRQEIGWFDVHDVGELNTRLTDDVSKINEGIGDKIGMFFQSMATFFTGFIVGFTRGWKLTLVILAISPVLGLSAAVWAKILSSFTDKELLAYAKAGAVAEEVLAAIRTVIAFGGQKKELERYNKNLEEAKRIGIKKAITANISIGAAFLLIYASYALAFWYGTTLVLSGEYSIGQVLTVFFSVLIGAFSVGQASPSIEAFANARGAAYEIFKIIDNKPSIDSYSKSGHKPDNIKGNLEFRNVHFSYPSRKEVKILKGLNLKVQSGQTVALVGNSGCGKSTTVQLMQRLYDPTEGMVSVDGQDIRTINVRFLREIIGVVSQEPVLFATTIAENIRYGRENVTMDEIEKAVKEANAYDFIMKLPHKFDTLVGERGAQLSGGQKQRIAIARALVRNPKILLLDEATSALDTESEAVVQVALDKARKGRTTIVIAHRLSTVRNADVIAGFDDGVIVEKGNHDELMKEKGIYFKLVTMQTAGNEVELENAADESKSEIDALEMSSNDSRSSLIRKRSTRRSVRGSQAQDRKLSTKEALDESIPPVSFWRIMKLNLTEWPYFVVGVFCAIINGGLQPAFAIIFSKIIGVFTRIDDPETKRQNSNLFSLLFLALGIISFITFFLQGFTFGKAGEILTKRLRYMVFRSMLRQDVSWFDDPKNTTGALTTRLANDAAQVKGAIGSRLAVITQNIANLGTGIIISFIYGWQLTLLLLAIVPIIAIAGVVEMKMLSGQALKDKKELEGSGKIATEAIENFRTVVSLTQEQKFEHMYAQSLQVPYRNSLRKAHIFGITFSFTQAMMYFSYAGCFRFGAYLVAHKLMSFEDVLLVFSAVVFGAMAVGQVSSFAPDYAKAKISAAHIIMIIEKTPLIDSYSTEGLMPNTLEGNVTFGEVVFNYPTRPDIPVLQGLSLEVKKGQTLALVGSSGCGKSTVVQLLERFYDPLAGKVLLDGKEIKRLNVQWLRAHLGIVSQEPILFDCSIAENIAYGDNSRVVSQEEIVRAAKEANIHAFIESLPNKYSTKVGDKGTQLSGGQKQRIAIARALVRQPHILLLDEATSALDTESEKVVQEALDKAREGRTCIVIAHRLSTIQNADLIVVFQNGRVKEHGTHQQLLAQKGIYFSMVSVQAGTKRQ

chromatographic logP ([1]; reversed-phase C18 HPLC column (Luna 5 µ C18 50 × 2.0 mm)): 1.8
Compound: C[C@@H]1C[C@H]2[C@@H]3CCC4=CC(=O)C=C[C@]4(C)[C@@]3(F)[C@@H](O)C[C@]2(C)[C@@]1(O)C(=O)CO [Dexamethasone]

Compound: Cc1c2oc3c(C)ccc(C(=O)N[C@@H]4C(=O)N[C@H](C(C)C)C(=O)N5CCC[C@H]5C(=O)N(C)CC(=O)N(C)[C@@H](C(C)C)C(=O)O[C@@H]4C)c3nc-2c(C(=O)N[C@@H]2C(=O)N[C@H](C(C)C)C(=O)N3CCC[C@H]3C(=O)N(C)CC(=O)N(C)[C@@H](C(C)C)C(=O)O[C@@H]2C)c(N)c1=O [Act D, Actinomycin D] (I: T[dV]P[Sar][NMeV] / II: T[dV]P[Sar][NMeV]; ester I:1-I:C, II:1-II:C; linker I:N-II:N via Actinocin(9to1))
blood plasma ratio at 1 h ([2]; 37 °C, 1 h, 95% confidence interval 0.03, read-out: Mean blood-to-plasma ratio): 0.62
blood plasma ratio at 1 h ([2]; whole blood spiked with 0.2 to 10 μg ml^−1, read-out: Blood-to-plasma ratios (range observed)): 0.59 to 0.65
Likelihood of developing SOS ([3]; patients over three years of age): 4%
Chance of developing SOS ([3]; patients under three years of age): 15%
Maximum rate of flux (J max) (ABCB1 (MDR1)): 1142 μM min^−1/10^6 cells
Michaelis–Menten constant (K m) (ABCB1 (MDR1)): 20 µM
Experimental Log P [1]: 4.77
chromatographic logP [1]: 4.47
CL Renal ([4]; PBPK input, CV of 60% used, ref Tattersall et al. 5): 1.8 (l h^−1) ^*
Administered dose eliminated in the urine and faeces ([4]; after nine days): approximately 35%
Compound type [5]: Neutral
Mean observed AUC ± SD (AUC0-26h) ([6]; age 1–<6 years, dose 0.60 mg m^−2 IV): 0.082 ± 0.018 µg·h/mL
Mean observed AUC ± SD (AUC0-26h) ([6]; age 1–<6 years, dose 0.76 mg m^−2 IV): 0.063 ± 0.008 µg·h/mL
Mean observed AUC ± SD (AUC0-26h) ([6]; age 1–<6 years, dose 1.01 mg m^−2 IV): 0.071 ± 0.033 µg·h/mL
Mean observed AUC ± SD (AUC0-26h) ([6]; age 1–<6 years, dose 1.12 mg m^−2 IV): 0.082 ± 0.016 µg·h/mL
Mean observed AUC ± SD (AUC0-26h) ([6]; age 1–<6 years, dose 1.48 mg m^−2 IV): 0.111 ± 0.016 µg·h/mL
Mean observed AUC ± SD (AUC0-26h) ([6]; age 1–<6 years, dose 1.55 mg m^−2 IV): 0.128 ± 0.051 µg·h/mL
Mean observed AUC ± SD (AUC0-26h) ([6]; age 6–<10 years, dose 0.77 mg m^−2 IV): 0.08 ± 0.028 µg·h/mL
Mean observed AUC ± SD (AUC0-26h) ([6]; age 6–<10 years, dose 1.50 mg m^−2 IV): 0.13 ± 0.012 µg·h/mL
Mean observed AUC ± SD (AUC0-26h) ([6]; age 10–20 years, dose 0.74 mg m^−2 IV): 0.045 ± 0.008 µg·h/mL
Mean observed AUC ± SD (AUC0-26h) ([6]; age 10–20 years, dose 1.04 mg m^−2 IV): 0.05 ± 0.012 µg·h/mL
Mean observed AUC ± SD (AUC0-26h) ([6]; age 10–20 years, dose 1.48 mg m^−2 IV): 0.12 ± 0.044 µg·h/mL
Mean AUC0-26h observed ([6]; observed in patients (abstract)): 0.093 µg·h/mL
Fraction unbound [7]: 0.95
